Our source for the ring closure, yield after HPLC, EPSA and IC50 values is patent publication US20260022143A1, “Cyclic Peptide Inhibitors of IL-23” (JANSSEN PHARMACEUTICA NV, priority 2022, published 2026).

Where a name gives a salt, the structure may show the parent alone. Read-outs that look alike come from different tables or passages of the source. Starred links: 1 amine or outer side, 2 acyl side, 3 side chain; linkers in the order of their positions; H or OH if unused. Positions of bridges follow the written chain, without caps; N, C: chain ends. Non-standard residues stand in square brackets, D forms with d. Residues, ends and D or L forms follow the SMILES beside them. *: point of attachment. Me3N+CH2CH2(OCH2CH2)4CO = C[N+](C)(C)CCOCCOCCOCCOCCC(=O)*; Me3N+(CH2)2O(CH2)2O(CH2)2CO = C[N+](C)(C)CCOCCOCCC(=O)*; CH2CH2OCH2CH2OCH2CH2NMe3+ = C[N+](C)(C)CCOCCOCC*; Trp(7-Me) = Cc1cccc2c(C[C@H](N)C(=O)O)c[nH]c12; X1 = CN(CC[C@H](N[*:1])C(=O)[*:2])[*:3]; 2Nal = N[C@@H](Cc1ccc2ccccc2c1)C(=O)O; AEF = NCCOc1ccc(C[C@H](N)C(=O)O)cc1; 3Pal = N[C@@H](Cc1cccnc1)C(=O)O; Lys(Me) = CNCCCC[C@H](N)C(=O)O; Pen = CC(C)(S)[C@H](N)C(=O)O; Thp = NC1(C(=O)O)CCOCC1; X3 = C[N+](C)(C)CCCCC*; Tfa = O=C(C(F)(F)F)*; Sar = CNCC(=O)O

For data set [1] the following is noted: disulfide bond, 20-membered ring.
Data set [2] in a line: Exposed Polar Surface Area (EPSA). The class given is physicochemical. To be noted: SFC on Chirex 3014 column; sample 1 mM DMSO stock; read-out: EPSA. The essentials:
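Compounds, as 1 mM DMSO stock, were injected in duplicate onto an SFC Chirex 3014 column at 35 °C and eluted with a CO2/methanol (20 mM ammonium formate) gradient. EPSA values in Å^2 were derived from retention times using a linear fit to eight calibration standards, reinjected every 20 compounds.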

The target in data set [3] is T1, interleukin-23 (IL-23) receptor (Homo sapiens, UniProt Q5VWK5).
T1 construct: Cryopreserved peripheral blood mononuclear cells (PBMCs) from healthy donors were thawed; endogenous in cells; host or cells: cryopreserved PBMCs from healthy donors, expanded 4 days on anti-CD3 with IL-1
T1 sequence (Q5VWK5 24-629): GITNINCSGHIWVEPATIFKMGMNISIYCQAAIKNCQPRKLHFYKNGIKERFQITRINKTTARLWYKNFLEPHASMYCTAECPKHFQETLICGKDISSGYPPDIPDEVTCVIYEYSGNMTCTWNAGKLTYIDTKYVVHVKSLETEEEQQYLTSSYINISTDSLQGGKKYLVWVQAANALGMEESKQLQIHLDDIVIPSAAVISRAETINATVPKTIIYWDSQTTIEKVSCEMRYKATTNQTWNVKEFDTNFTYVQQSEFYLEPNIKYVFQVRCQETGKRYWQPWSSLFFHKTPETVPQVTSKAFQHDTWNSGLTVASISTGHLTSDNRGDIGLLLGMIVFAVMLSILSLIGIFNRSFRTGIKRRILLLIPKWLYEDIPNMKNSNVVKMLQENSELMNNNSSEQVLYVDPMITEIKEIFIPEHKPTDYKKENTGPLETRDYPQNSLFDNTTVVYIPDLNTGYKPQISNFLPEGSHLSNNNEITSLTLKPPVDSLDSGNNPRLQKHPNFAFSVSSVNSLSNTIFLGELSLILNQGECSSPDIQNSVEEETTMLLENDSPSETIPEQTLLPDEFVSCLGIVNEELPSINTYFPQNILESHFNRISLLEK
Kind of data set: PBMC pSTAT3 assay. The class given is cell-based. As to the method: Cryopreserved peripheral blood mononuclear cells (PBMCs) from healthy donors were thawed and washed twice in ImmunoCult-XF T cell expansion medium (XF-TCEM) supplemented with CTL anti-aggregate wash. The cells were counted, resuspended at 2×10^5 cells per mL XF-TCEM supplemented with penicillin/streptomycin and 100 ng/mL IL-1 (BioLegend, 579404), and cultured in tissue culture flasks coated with anti-CD3 (eBioscience, 16-0037-85 or BD Pharmingen, 555329) at 37° C. in 5% CO2. On day 4 of culture, PBMCs were collected, washed twice in RPMI-1640 supplemented with 0.1% BSA (RPMI-BSA), and incubated in RPMI-BSA in upright tissue culture flasks for 4 hours at 37° C. in 5% CO2. Following this ‘starvation,’ a total of 6×10^4 cells in […] RPMI-BSA was transferred into each well of a 384-well plate pre-spotted with peptide or DMSO. The cells were incubated for 30 minutes prior to the addition of IL-23 at a final concentration of 5 ng/mL. The cells were stimulated with cytokine for 30 minutes at 37° C. in 5% CO2, transferred onto ice for 10 minutes, and lysed. Cell lysates were stored at −80° C. until phosphorylated STAT3 was measured using the phospho-STAT panel kit (Meso Scale Discovery, K15202D).

The next data set addresses T2, IL-23R (Homo sapiens, UniProt Q5VWK5).
T2 construct: host or cells: HEK293
T2 sequence (Q5VWK5 24-629): T1 sequence (Q5VWK5 24-629)
In words: IL23R Reporter Assay. The class given is cell-based. Particulars: HEK293 cells containing IL-23R, IL-12RP1 and STAT-inducible firefly luciferase reporter; 10 ng/mL IL-23 (EC90); 5 h at 37° C.; read-out: IL23R Reporter Assay. A general note: In a reporter assay the amount or activity of a reporter protein is the signal.

In turn, “MeCO-k(Me)3-Pen(3)-N(N(Me)2)-T-7MeW-K(NMeAc)-Pen(3)-AEF(N(Me)2)-2Nal-THP-E-N-3Pya-Sar-CON(Me)2” had a ring closure, yield after HPLC in data set [1] (I2/AcOH, MeCN/H2O, […]) of 13.4%.

As to `Cc1cccc2c(C[C@@H]3NC(=O)[C@H]([C@@H](C)O)NC(=O)[C@H](CC(=O)N(C)C)NC(=O)[C@@H](NC(=O)CCOCCOCCOCCOCC[N+](C)(C)C)C(C)(C)SSC(C)(C)[C@@H](C(=O)N[C@@H](Cc4ccc(OCCN)cc4)C(=O)N[C@@H](Cc4ccc5ccccc5c4)C(=O)NC4(C(=O)N[C@@H](CCC(=O)O)C(=O)N[C@@H](CC(N)=O)C(=O)N[C@@H](Cc5cccnc5)C(=O)N(C)CC(=O)N(C)C)CCOCC4)NC(=O)[C@H](CCN(C)C(=O)CCOCCOCCOCCOCC[N+](C)(C)C)NC3=O)c[nH]c12` [compound 145, cPEG5aCO-Pen(3)-N(N(Me)2)-T-7MeW-Dab(NMecPEG5a)-Pen(3)-AEF-2Nal-THP-E-N-3Pya-Sar-CON(Me)2] ({Me3N+CH2CH2(OCH2CH2)4CO}-[Pen]D(NMe2)T[Trp(7-Me)][X1](Me3N+CH2CH2(OCH2CH2)4CO)[Pen][AEF][2Nal][Thp]EN[3Pal][Sar]-NMe2; disulfide 1-6), in data set [2], the EPSA is 158 A^2. Further, the figures for the IC50 (in data set [3]; at IL-23R) were 0.022 nM and 5.7 nM, respectively.

In the case of “cPEG5aCO-Pen(3)-N(N(Me)2)-T-7MeW-Dab(NMecPEG5a)-Pen(3)-AEF-2Nal-THP-E-N-3Pya-Sar-CON(Me)2”, in data set [1] (I2/AcOH, MeCN/H2O, 2.05 mM), the ring closure, yield after HPLC turned out to be 10%.

As to `CC(=O)N(C)CCCC[C@@H]1NC(=O)[C@H](Cc2c[nH]c3c(C)cccc23)NC(=O)[C@H]([C@@H](C)O)NC(=O)[C@H](CC(=O)N(C)C)NC(=O)[C@@H](NC(=O)CCOCCOCC[N+](C)(C)C)C(C)(C)SSC(C)(C)[C@@H](C(=O)N[C@@H](Cc2ccc(OCCOCCOCC[N+](C)(C)C)cc2)C(=O)N[C@@H](Cc2ccc3ccccc3c2)C(=O)NC2(C(=O)N[C@@H](CCCCN(C)C(C)=O)C(=O)N[C@@H](CC(N)=O)C(=O)N[C@@H](Cc3cccnc3)C(=O)N(C)CC(=O)N(C)C)CCOCC2)NC1=O` [compound 181, cPEG3aCO-Pen(3)-N(N(Me)2)-T-7MeW-K(NMeAc)-Pen(3)-APEG3F-2Nal-THP-K(NMeAc)-N-3Pya-Sar-CON(Me)2] ({Me3N+(CH2)2O(CH2)2O(CH2)2CO}-[Pen]D(NMe2)T[Trp(7-Me)][Lys(Me)](Ac)[Pen]Y(CH2CH2OCH2CH2OCH2CH2NMe3+)[2Nal][Thp][Lys(Me)](Ac)N[3Pal][Sar]-NMe2; disulfide 1-6), the EPSA in data set [2] came out at 136 A^2. The figures for the IC50 (in data set [3]; on IL-23R) were 0.037 nM and 2 nM, respectively.

With `Cc1cccc2c(C[C@@H]3NC(=O)[C@H]([C@@H](C)O)NC(=O)[C@H](CC(N)=O)NC(=O)[C@@H](NC(=O)C(F)(F)F)C(C)(C)SSC(C)(C)[C@@H](C(=O)N[C@@H](Cc4ccc(OCCN)cc4)C(=O)N[C@@H](Cc4ccc5ccccc5c4)C(=O)NC4(C(=O)N[C@@H](CCC(=O)N(C)C)C(=O)N[C@@H](CC(N)=O)C(=O)N[C@@H](Cc5cccnc5)C(=O)N(C)CC(N)=O)CCOCC4)NC(=O)[C@H](CCC(=O)N(C)C)NC3=O)c[nH]c12` [compound 62] (Tfa-[Pen]NT[Trp(7-Me)]E(NMe2)[Pen][AEF][2Nal][Thp]E(NMe2)N[3Pal][Sar]-NH2; disulfide 1-6 (inferred)), the EPSA in data set [2] is 160 A^2. Also, the IC50 in data set [3] was 0.0081 nM; on IL-23R, 3.2 nM.

In turn, “CF3CO-Pen(3)-N(N(Me)2)-T-7MeW-K(NMeAc)-Pen(3)-AEF-2Nal-THP-K(NMeAc)-N-3Pya-Sar-CON(Me)2” gave a ring closure, yield after HPLC in data set [1] (I2/MeOH, 20% MeCN/H2O, 0.56 mM) of 12.1%.

Turning to `CC(=O)NCCCC[C@@H]1NC(=O)[C@H](Cc2c[nH]c3c(C)cccc23)NC(=O)[C@H]([C@@H](C)O)NC(=O)[C@H](CC(N)=O)NC(=O)[C@@H](NC(C)=O)C(C)(C)SSC(C)(C)[C@@H](C(=O)N[C@@H](Cc2ccc(OCCCCC[N+](C)(C)C)cc2)C(=O)N[C@@H](Cc2ccc3ccccc3c2)C(=O)NC2(C(=O)N[C@@H](CCCCNC(C)=O)C(=O)N[C@@H](CC(N)=O)C(=O)N[C@@H](Cc3cccnc3)C(=O)N(C)CC(N)=O)CCOCC2)NC1=O` [compound 281, MeCO-Pen(3)-N-T-7MeW-K(Ac)-Pen(3)-TMAPF-2Nal-THP-K(Ac)-N-3Pya-Sar-CONH2] (Ac-[Pen]NT[Trp(7-Me)]K(Ac)[Pen]Y(X3)[2Nal][Thp]K(Ac)N[3Pal][Sar]-NH2; disulfide 1-6 (inferred)), the EPSA in data set [2] amounted to 158 A^2. The figures for the IC50 (in data set [3]; at IL-23R) were 0.0075 nM and 1.6 nM, respectively.
